Measured values reported in ChEMBL document CHEMBL1201862, “PubChem BioAssay data set” (2004).
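Briefly, cells in 96-well plates were exposed to five compound concentrations for 48 h, and endpoints were estimated by linear interpolation. GI50 = concentration required for 50% inhibition of growth.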 Activity calls are given as the source filed them. Cut-off read from the data, not from the text of the source: active = GI50 up to about 1.1 µM and inactive = higher.

Assays:
Assay in all cases: inhibition of tumour cell growth, NCI panel, 48 h
[1] = system: RXF 393
[2] = system: DU-145
[3] = system: T47D
[4] = system: A549
[5] = system: SW-620
[6] = system: HOP-62
[7] = system: BT-549
[8] = system: KM12
[9] = system: K562
[10] = system: HL-60
[11] = system: A498
[12] = system: MDA-MB-435
[13] = system: NCI-H460
[14] = system: UO-31
[15] = system: SN12C
[16] = system: MCF7
[17] = system: SF-268
[18] = system: NCI-H226
[19] = system: MDA-MB-231
[20] = system: UACC-257
[21] = system: CCRF-CEM
[22] = system: SK-MEL-5
[23] = system: SK-MEL-28
[24] = system: SK-OV-3
[25] = system: PC-3
[26] = system: UACC-62
[27] = system: SNB-19
[28] = system: 786-0
[29] = system: COLO 205
[30] = system: OVCAR-3
[31] = system: SR
[32] = system: Malme-3M
[33] = system: U-251
[34] = system: ACHN
[35] = system: HCT-116
[36] = system: OVCAR-5
[37] = system: HCC 2998
[38] = system: Hs-578T
[39] = system: SF-295
[40] = system: HCT-15
[41] = system: NCI-H23
[42] = system: NCI/ADR-RES
[43] = system: M14
[44] = system: MDA-N
[45] = system: SK-MEL-2
[46] = system: SNB-75
[47] = system: TK-10
[48] = system: MOLT-4
[49] = system: HT-29
[50] = system: IGROV-1
[51] = system: HOP-92
[52] = system: EKVX
[53] = system: OVCAR-4
[54] = system: RPMI-8226
[55] = system: CAKI-1
[56] = system: OVCAR-8
[57] = system: NCI-H522
[58] = system: SF-539

O=C(N/N=C/C=C/c1ccccc1)c1ccccc1Nc1ccccc1C(=O)N/N=C/C=C/c1ccccc1
GI50 [1]: 20.5 µM (inactive)
GI50 [2]: > 100 µM (inactive)
GI50 [3]: > 100 µM (inactive)
GI50 [4]: > 100 µM (inactive)
GI50 [5]: > 100 µM (inactive)
GI50 [6]: 3.58 µM (inactive)
GI50 [7]: > 100 µM (inactive)
GI50 [8]: > 100 µM (inactive)
GI50 [9]: > 100 µM (inactive)
GI50 [10]: > 100 µM (inactive)
GI50 [11]: > 100 µM (inactive)
GI50 [12]: > 100 µM (inactive)
GI50 [13]: 26.5 µM (inactive)
GI50 [14]: > 100 µM (inactive)
GI50 [15]: > 100 µM (inactive)
GI50 [16]: > 100 µM (inactive)
GI50 [17]: 34.4 µM (inactive)
GI50 [18]: > 100 µM (inactive)
GI50 [19]: 49.5 µM (inactive)
GI50 [20]: > 100 µM (inactive)
GI50 [21]: 12.5 µM (inactive)
GI50 [22]: > 100 µM (inactive)
GI50 [23]: > 100 µM (inactive)
GI50 [24]: > 100 µM (inactive)
GI50 [25]: > 100 µM (inactive)
GI50 [26]: 93.5 µM (inactive)
GI50 [27]: 11.9 µM (inactive)
GI50 [28]: > 100 µM (inactive)
GI50 [29]: > 100 µM (inactive)
GI50 [30]: > 100 µM (inactive)
GI50 [31]: 12.8 µM (inactive)
GI50 [32]: > 100 µM (inactive)
GI50 [33]: 20.8 µM (inactive)
GI50 [34]: > 100 µM (inactive)
GI50 [35]: 90.8 µM (inactive)
GI50 [36]: > 100 µM (inactive)
GI50 [37]: > 100 µM (inactive)
GI50 [38]: 41.1 µM (inactive)
GI50 [39]: 27.5 µM (inactive)
GI50 [40]: > 100 µM
GI50 [41]: > 100 µM (inactive)
GI50 [42]: > 100 µM (inactive)
GI50 [43]: 48 µM (inactive)
GI50 [44]: > 100 µM (inactive)
GI50 [45]: 59.4 µM (inactive)
GI50 [46]: 21.4 µM (inactive)
GI50 [47]: > 100 µM (inactive)
GI50 [48]: 1.92 µM (inactive)
GI50 [49]: > 100 µM (inactive)
GI50 [50]: > 100 µM (inactive)
GI50 [51]: 67 µM (inactive)
GI50 [52]: > 100 µM (inactive)
GI50 [53]: 67.9 µM (inactive)
GI50 [54]: > 100 µM (inactive)
GI50 [55]: > 100 µM (inactive)
GI50 [56]: > 100 µM (inactive)

O=C(O)C1=C/C(=C(/c2ccccc2)c2cc(C(=O)O)c(O)c3ccccc23)c2ccccc2C1=O
GI50 [1]: > 100 µM (inactive)
GI50 [2]: > 100 µM (inactive)
GI50 [3]: > 100 µM (inactive)
GI50 [4]: > 100 µM (inactive)
GI50 [5]: > 100 µM (inactive)
GI50 [6]: > 100 µM (inactive)
GI50 [7]: > 100 µM (inactive)
GI50 [8]: > 100 µM (inactive)
GI50 [9]: > 100 µM (inactive)
GI50 [10]: < 0.01 µM (active)
GI50 [11]: > 100 µM (inactive)
GI50 [12]: > 100 µM (inactive)
GI50 [13]: > 100 µM (inactive)
GI50 [14]: > 100 µM (inactive)
GI50 [15]: > 100 µM (inactive)
GI50 [16]: > 100 µM (inactive)
GI50 [17]: > 100 µM (inactive)
GI50 [18]: > 100 µM (inactive)
GI50 [19]: > 100 µM (inactive)
GI50 [20]: > 100 µM (inactive)
GI50 [21]: < 0.01 µM (active)
GI50 [22]: > 100 µM (inactive)
GI50 [23]: > 100 µM (inactive)
GI50 [24]: > 100 µM (inactive)
GI50 [57]: > 100 µM (inactive)
GI50 [25]: > 100 µM (inactive)
GI50 [26]: > 100 µM (inactive)
GI50 [27]: > 100 µM (inactive)
GI50 [28]: > 100 µM (inactive)
GI50 [29]: > 100 µM (inactive)
GI50 [30]: > 100 µM (inactive)
GI50 [31]: > 100 µM (inactive)
GI50 [32]: > 100 µM (inactive)
GI50 [33]: > 100 µM (inactive)
GI50 [34]: > 100 µM (inactive)
GI50 [35]: > 100 µM (inactive)
GI50 [36]: > 100 µM (inactive)
GI50 [37]: > 100 µM (inactive)
GI50 [38]: > 100 µM (inactive)
GI50 [39]: > 100 µM (inactive)
GI50 [40]: > 100 µM
GI50 [41]: > 100 µM (inactive)
GI50 [42]: > 100 µM (inactive)
GI50 [43]: > 100 µM (inactive)
GI50 [58]: > 100 µM (inactive)
GI50 [44]: > 100 µM (inactive)
GI50 [45]: > 100 µM (inactive)
GI50 [46]: > 100 µM (inactive)
GI50 [47]: > 100 µM (inactive)
GI50 [48]: > 100 µM (inactive)
GI50 [49]: > 100 µM (inactive)
GI50 [50]: > 100 µM (inactive)
GI50 [51]: > 100 µM (inactive)
GI50 [52]: > 100 µM (inactive)
GI50 [53]: > 100 µM (inactive)
GI50 [54]: > 100 µM (inactive)
GI50 [55]: > 100 µM (inactive)
GI50 [56]: > 100 µM (inactive)
